From patent US5004756A, “Anti-cancer activity potentiator” (priority 1988, dated 1991)

B1: neocartinostatin (protein, UniProt P0A3R9 35-147, looked up)
Neocarzinostatin: AAPTATVTPSSGLSDGTVVKVAGAGLQAGTAYDVGQCAWVDTGVLACNPADFSSVTADANGSASTSLTVRRSFEGFLFDGTRWGTVDCTTAACQVGLSDAAGNGPEGVAISFN

Experiments:
[1] = Particle charge / formation of lipid emulsion; assay type: physicochemical
Text: To secure fine particles of 1 micron or below in size which can actually be administered as a lipid emulsion, the particles should have a charge within the range of +20 mV to +50 mV.

B16 melanoma cells = experiment: Life prolongation of BDF1 mice with B16 melanoma (A-II Part 1); assay type: in vivo, mouse (male BDF1); details: 0.45 mg/kg i.p., three times every 4 days
Method: Three to eight male BDF1 mice having a body weight of 20±3 g were used, and B16 melanoma cells were selected as tumor cells. The melanoma cells were homogenized, and the homogenate was transplanted subcutaneously to the mice in an amount of 0.5 ml/mouse. After 7 days, the malate of formula (I) in accordance with this invention and an anti-cancer agent, neocartinostatin (NCS), were intraperitoneally administered either singly or in combination three times every 4 days in a dose of 5 mg/kg and 0.45 mg/kg for each time. The life prolonging rate of the mice was determined by the treated group/non-treated control group (T/C %).

Row | Molecule | Formation of a lipid emulsion [1] | Particle charge within +20 mV to +50 mV / aggregation ([1]; lipid emulsion particles) | T/C (life prolonging rate at M.S.T.) (B16 melanoma cells) [%]
1 | COc1ccc(CNCCN(CC=C(C)CCC=C(C)CCC=C(C)CCC=C(C)CCC=C(C)CCC=C(C)CCC=C(C)CCC=C(C)CCC=C(C)C)Cc2ccc(OC)c(OC)c2)cc1OC [compound (II), N-solanesyl-N,N'-bis(3,4-dimethoxybenzyl)ethylenediamine] | cannot be formed into a lipid emulsion | particle aggregation occurs | 
2 | B1 |  |  | 135
